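48-hour exposure; five concentrations; linearly interpolated endpoints. TGI marks complete inhibition of growth.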
Experiments:
Test in all cases: growth of human tumour cells (NCI), 48 h
OVCAR-3 ovarian = test system: OVCAR-3 ovarian
UACC-62 melanoma = test system: UACC-62 melanoma
UACC-257 melanoma = test system: UACC-257 melanoma
SW-620 colon = test system: SW-620 colon
SR leukemia = test system: SR leukemia
OVCAR-8 ovarian = test system: OVCAR-8 ovarian
MDA-N = test system: MDA-N
HCT-15 colon = test system: HCT-15 colon
MOLT-4 leukemia = test system: MOLT-4 leukemia
RXF 393 renal = test system: RXF 393 renal
NCI-H23 lung = test system: NCI-H23 lung

Structure (SMILES) | TGI (OVCAR-3 ovarian) [µM] | TGI (UACC-62 melanoma) [µM] | TGI (UACC-257 melanoma) [µM] | TGI (SW-620 colon) [µM] | TGI (SR leukemia) [µM] | TGI (OVCAR-8 ovarian) [µM] | TGI (MDA-N) [µM] | TGI (HCT-15 colon) [µM] | TGI (MOLT-4 leukemia) [µM] | TGI (RXF 393 renal) [µM] | TGI (NCI-H23 lung) [µM]
COc1ccc(C2CCc3c(cnc4nc(N)nc(N)c34)C2)cc1 (stereo unspecified) | > 100 | > 100 | > 100 | > 100 | > 100 | > 100 | > 100 | > 100 | > 100 | 42.6 | 
CCOC(=O)CCN1C(=O)c2c(NC(=O)C(=O)O)cccc2S1(=O)=O |  | > 100 | > 100 | > 100 | > 100 | > 100 | > 100 | > 100 | > 100 | > 100 | > 100
COc1ccc2c(-c3csc(-c4c[nH]c5ccccc45)n3)c[nH]c2c1 | 51.7 | > 94.8 | > 90.6 | > 100 | > 100 | > 60.6 | > 100 | > 100 | 19.8 | 17.9 | > 66.5
O=C1CCc2c(sc3ncnc(Nc4cccc(Br)c4)c23)C1 | 8.31 | 11.1 | 11.6 | 11.6 | 7.82 | 21.3 | 7.69 | 12.4 | > 27 | 7.51 | 8.24
CCOC(=O)N1c2c(c3ccccc3n2C(=O)OCC)C(=O)C(OC)N1C(=O)OCC (stereo unspecified) | > 100 | > 100 | > 100 | > 100 | 45.1 | > 100 | > 100 | 79 | 50.8 |  | > 100
Nc1nc(Cl)cc(NCC2CC(O)(CO)C2)n1 (stereo unspecified) | > 100 | > 100 | > 100 | > 100 |  | > 100 | > 100 | > 100 | > 100 | > 100 | > 100
CC1CN=C(N(C(=O)Nc2ccccc2)C2CCCCC2)S1 (stereo unspecified) | 31.8 |  | 30.2 | 28.5 | 35.1 | 75 | 30.1 | 28.9 | 38.8 |  | 33.8
O=c1[nH]c(=O)c2c([nH]1)[nH]c1ccccc12 | > 100 | > 100 | > 100 | > 100 | > 100 | > 100 | > 100 | > 100 | > 100 | > 100 | > 100
N#Cc1c(NC(=S)Nc2ccccc2)sc2c1CCCC2 | > 100 | > 100 | > 100 | > 100 | > 100 | > 100 | > 100 | > 100 | > 100 | > 100 | > 100
Clc1ccc(C2=NNC(c3cccc(Cl)c3)C2)cc1 (stereo unspecified) | > 100 | > 100 | > 100 | 74.9 | > 100 |  | 59.6 |  | > 100 | > 100 | > 100
c1ccc2c(c1)[C@@H]1O[C@@H]1[C@@]13O[C@@]21[C@H]1O[C@H]1c1ccccc13 | 32.1 | 28.1 | 37.2 | 39.5 |  | 39.6 | 32.6 | 48.8 | > 100 | 25.7 | 40.1
CC(=O)c1c2c(cc3c1CCC3)CCC2 | > 100 | > 100 | > 100 | > 100 | > 100 | > 100 | > 100 | > 100 | > 100 |  | > 100
O=C(OCC(OC(=O)c1ccccc1)C1CC(C(O)C2CCCCC2)C(=O)O1)c1ccccc1 (stereo unspecified) | > 100 | > 100 | > 100 | > 100 | 44.8 | > 100 | > 100 | > 100 | 47.9 | > 100 | > 100
S=C1NNC(=S)NN1 | > 1 | > 1 | > 1 | > 1 | 0.671 | > 1 | > 1 | > 1 | 0.898 |  | > 1
CN1C(=O)[C@](C)(Cc2ccc(F)cc2)N(C(=O)OC(C)(C)C)[C@@H]1C(C)(C)C | 84 | > 100 | 92.3 | > 100 | 43.9 | 91.7 | > 100 | > 100 | 40.6 | 59.9 | > 100
Cc1cnc2cc(Cl)ccc2c1SCC(=O)O | > 100 | > 100 | > 100 | > 100 | > 100 | > 100 | > 100 | > 100 | > 100 | > 100 | > 100
O=C(O)CCC(NC(=O)/C(=C/c1ccccc1)NC(=O)c1ccccc1)C(=O)O (stereo unspecified) | > 100 | > 100 | > 100 | > 100 |  | > 100 | > 100 | > 100 | > 100 | > 100 | > 100
Fc1sc2c(c1F)C1CCC2C1 (stereo unspecified) | > 100 | > 100 | > 100 | > 100 |  | > 100 | > 100 | > 100 | 86.8 | > 100 | > 100
Cc1cccc2c1C(=O)/C(=C/c1ccccc1C(=O)O)C2 | > 100 | > 100 | > 100 | > 100 |  | > 100 | > 100 | > 100 | > 100 | > 100 | > 100
C=C1CC2C[C@H](OS(=O)(=O)c3ccc(C)cc3)C(C1)N2C (stereo partly specified) | > 100 | > 100 | > 100 | > 100 | > 100 | > 100 | > 100 | > 100 | > 100 | > 100 | > 100
CC1=NNC(N)=N/C1=C\C(Sc1ccc(Cl)cc1)c1ccc(Cl)cc1Cl (stereo unspecified) |  | > 51.9 | 39.9 | 59.9 | > 100 | 31.7 | > 71.5 | 30.4 | > 100 | 50.9 | 29.4

Source: PubChem BioAssay (NCI)
